The test system of the test is water-immersion stress loaded rat (fatigue rat) model. Nature of the test: weight-loaded forced swimming test in ME/CFS animal model (water-immersion stress loaded fatigue rat). Type of test: in vivo. Conditions: Slc:SD fatigue rat, compared to fatigue control group, hydrochloride. The source says:
A […] encephalomyelitis/chronic fatigue syndrome (ME/CFS)-improving effect by the administration of the compound (amiselimod hydrochloride) relating to the present invention was verified as follows according to the method of Tanaka et al. (Establishment and assessment of a rat model fatigue. Neuroscience letters 2003, 352: 159-162) using a water-immersion stress loaded rat (fatigue rat) model. The animal used was 9-week-old Slc:SD rat. The rats were bred (water-immersion breeding) for 6 days in a plastic cage (W: 445×D: 276×H: 204 mm) containing tap water (water temperature: 23±1° C.) to a height of 1.5 cm, and a weight-loaded forced swimming test was conducted. on the final day. In the weight-loaded forced swimming test, a rat with a weight equivalent to 8% of its body weight attached to its tail was placed in a circular water tank (diameter: 18 cm, height: 70 cm, water depth: 40 cm, water temperature: 23±1° C.), and the time from the start of swimming until the rat's nose sinks from the water surface for 20 seconds was measured. The weight-loaded forced swimming test was conducted blindly. Amiselimod hydrochloride (0.1, 0.3 and 1 mg/kg administration) was orally administered once a day for 6 days from the start date of the water-immersion breeding. As control groups, a normal control group for normal breeding and a fatigue control group for water-immersion breeding were set, and the vehicle (0.5% HPMC) was administered to both groups. The number of cases was 10 in each group.

“Also recorded” adds a separate entry of the source.

For `CCCCCCCOc1ccc(CCC(N)(CO)CO)cc1C(F)(F)F.Cl` [amiselimod hydrochloride, 2-amino-2-[2-(4-heptyloxy-3-trifluoromethylphenyl)ethyl]propane-1,3-diol hydrochloride], the “swimming time in weight-loaded forced swimming test” value is, setting by setting: (0.1 mg/kg orally once a day for 6 days, 0.1 mg/kg) “significant difference was observed; also recorded: significantly prolonged the swimming time”; (0.3 mg/kg orally once a day for 6 days, 0.3 mg/kg) “significant difference was observed; also recorded: significantly prolonged the swimming time”; (1 mg/kg orally once a day for 6 days, 1 mg/kg) “significant difference was observed; also recorded: significantly prolonged the swimming time”.

(Values after patent publication US20230055568A1, “THERAPEUTIC AGENT FOR MYALGIC ENCEPHALOMYELITIS/CHRONIC FATIGUE SYNDROME” (MITSUBISHI TANABE PHARMA CORPORATION, priority 2020, published 2023).)
